In patent US20220323406A1, “METHODS AND COMPOSITIONS FOR DIFFERENTIATING STEM CELLS” (Massachusetts Institute of Technology, priority 2019, published 2022):
Counter-ions that a name gives are not always drawn.

What was measured:
[1] = test system: ENR+CD organoids (ISC to Paneth cell differentiation); assay: Primary screen: basal (non-stimulated) lysozyme secretion LYZ.NS, 2.5-D 384-well ENR+CD organoid differentiation; type: cell-based, mouse
Text: (§1) High-throughput screening.

[2] = test system: ENR+CD organoids (ISC to Paneth cell differentiation); assay: Primary screen: CCh-stimulated lysozyme secretion LYZ.S, 2.5-D 384-well ENR+CD organoid differentiation; type: cell-based, mouse; conditions: primary screen
Text: as §1

ENR+CD organoids = assay: Primary screen: ATP (CellTiter-Glo 3D, CTG) cell number/viability, 2.5-D 384-well ENR+CD organoids;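 note: compounds given at plating and again on day 3 over a 6-day differentiation from ENR+CV stem-cell-enriched precursors, ATP measured on day 6, plate median as control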
[3] = primary screen, dose 0.08 uM, FC relative to plate median
[4] = primary screen, dose 0.08 uM, standard z score
[5] = primary screen, dose 0.40 uM, FC relative to plate median
[6] = primary screen, dose 0.40 uM, standard z score
[7] = primary screen, dose 2.00 uM, FC relative to plate median
[8] = primary screen, dose 2.00 uM, standard z score
[9] = primary screen, dose 10.00 uM, FC relative to plate median
[10] = primary screen, dose 10.00 uM, standard z score
[11] = dose 0.08 uM, FC relative to plate median
[12] = dose 0.40 uM, FC relative to plate median
[13] = dose 2.00 uM, FC relative to plate median
[14] = dose 10.00 uM, FC relative to plate median
[15] = primary screen, standard z score, dose 0.08 uM
[16] = primary screen, standard z score, dose 0.40 uM
[17] = primary screen, standard z score, dose 2.00 uM
[18] = primary screen, standard z score, dose 10.00 uM

Compound | Dose.FC.LYZ.NS ([1]; primary screen, dose 0.08 uM) [log2 fold change] | Dose.FC.LYZ.NS ([1]; primary screen, dose 0.40 uM) [log2 fold change] | Dose.FC.LYZ.NS ([1]; primary screen, dose 2.00 uM) [log2 fold change] | Dose.FC.LYZ.NS ([1]; primary screen, dose 10.00 uM) [log2 fold change] | Dose.FC.LYZ.S ([2]; dose 0.08 uM) [log2 fold change] | Dose.FC.LYZ.S ([2]; dose 0.40 uM) [log2 fold change] | Dose.FC.LYZ.S ([2]; dose 2.00 uM) [log2 fold change] | Dose.FC.LYZ.S ([2]; dose 10.00 uM) [log2 fold change] | Dose.FC.CTG (ENR+CD organoids; primary screen, dose 0.08 uM) [log2 fold change] | Dose.FC.CTG (ENR+CD organoids; primary screen, dose 0.40 uM) [log2 fold change] | Dose.FC.CTG (ENR+CD organoids; primary screen, dose 2.00 uM) [log2 fold change] | Dose.FC.CTG (ENR+CD organoids; primary screen, dose 10.00 uM) [log2 fold change] | Z.LYZ.NS (standard z score) ([1]; primary screen, dose 0.08 uM) | Z.LYZ.NS (standard z score) ([1]; primary screen, dose 0.40 uM) | Z.LYZ.NS (standard z score) ([1]; primary screen, dose 2.00 uM) | Z.LYZ.NS (standard z score) ([1]; primary screen, dose 10.00 uM) | Z.CTG (standard z score) (ENR+CD organoids; primary screen, dose 0.08 uM) | Z.CTG (standard z score) (ENR+CD organoids; primary screen, dose 0.40 uM) | Z.CTG (standard z score) (ENR+CD organoids; primary screen, dose 2.00 uM) | Z.CTG (standard z score) (ENR+CD organoids; primary screen, dose 10.00 uM) | further results
COc1cc2c(N3CCN(C(=O)Nc4ccc(OC(C)C)cc4)CC3)ncnc2cc1OCCCN1CCCCC1 [Tandutinib (MLN518)] |  |  |  |  |  |  |  |  |  |  |  |  |  |  |  |  |  |  |  |  | Dose.FC.LYZ.NS [1, 3]: 0.095 log2 fold change; Z.LYZ.NS [1, 4]: 0.828; Dose.FC.LYZ.NS [1, 5]: 0.122 log2 fold change; Z.LYZ.NS [1, 6]: 1.066; Dose.FC.LYZ.NS [1, 7]: 0.116 log2 fold change; Z.LYZ.NS [1, 8]: 1.012; Dose.FC.LYZ.NS [1, 9]: 0.047 log2 fold change; Z.LYZ.NS [1, 10]: 0.407; Dose.FC.LYZ.S [2, 11]: 0.145 log2 fold change; Dose.FC.LYZ.S [2, 12]: 0.178 log2 fold change; Dose.FC.LYZ.S [2, 13]: 0.093 log2 fold change; Dose.FC.LYZ.S [2, 14]: 0.100 log2 fold change; Dose.FC.CTG (ENR+CD organoids; [3]): 0.585 log2 fold change; Z.CTG (ENR+CD organoids; [4]): 1.397; Dose.FC.CTG (ENR+CD organoids; [5]): 0.354 log2 fold change; Z.CTG (ENR+CD organoids; [6]): 0.845; Dose.FC.CTG (ENR+CD organoids; [7]): 0.358 log2 fold change; Z.CTG (ENR+CD organoids; [8]): 0.856; Dose.FC.CTG (ENR+CD organoids; [9]): 0.586 log2 fold change; Z.CTG (ENR+CD organoids; [10]): 1.401
Cc1ccc([C@@H]2O[C@H](CO)[C@@H](O)[C@H](O)[C@H]2O)cc1Cc1ccc(-c2ccc(F)cc2)s1 [Canagliflozin] | −0.027 | −0.046 | 0.025 | −0.064 | 0.014 | −0.032 | 0.028 | −0.033 | −0.240 | −0.098 | 0.042 | −0.079 |  |  |  |  |  |  |  |  | Z.LYZ.NS [1, 15]: −0.233; Z.LYZ.NS [1, 16]: −0.398; Z.LYZ.NS [1, 17]: 0.214; Z.LYZ.NS [1, 18]: −0.556; Z.CTG (ENR+CD organoids; [15]): −0.572; Z.CTG (ENR+CD organoids; [16]): −0.235; Z.CTG (ENR+CD organoids; [17]): 0.101; Z.CTG (ENR+CD organoids; [18]): −0.188
C[C@]12CC[C@@H]3c4ccc(O)cc4C[C@@H](CCCCCCCCC[S+]([O-])CCCC(F)(F)C(F)(F)F)[C@H]3[C@@H]1CC[C@@H]2O (stereo partly drawn) [Fulvestrant] | 0.057 | −0.050 | 0.000 | −0.043 | 0.051 | −0.049 | −0.024 | −0.150 | 0.119 | −0.063 | 0.142 | −0.204 |  |  |  |  |  |  |  |  | Z.LYZ.NS [1, 15]: 0.500; Z.LYZ.NS [1, 16]: −0.432; Z.LYZ.NS [1, 17]: 0.003; Z.LYZ.NS [1, 18]: −0.376
O=C(O)c1cccc(-c2noc(-c3ccccc3F)n2)c1 [Ataluren (PTC124)] | 0.029 | 0.042 | 0.131 | 0.009 | 0.051 | 0.034 | 0.058 | 0.005 | 0.267 | −0.340 | −0.042 | 0.006 | 0.253 | 0.362 | 1.140 | 0.077 | 0.639 | −0.813 | −0.100 | 0.013 | 
Cc1[nH]c2ccccc2c1CCNC(=O)c1cccs1 [CK-636] | 0.039 | −0.049 | −0.066 | −0.108 | 0.080 | −0.013 | 0.072 | −0.103 | 0.202 | −0.004 | −0.201 | −0.169 |  |  |  |  |  |  |  |  | Z.LYZ.NS [1, 15]: 0.336; Z.LYZ.NS [1, 16]: −0.427; Z.LYZ.NS [1, 17]: −0.573; Z.LYZ.NS [1, 18]: −0.944; Z.CTG (ENR+CD organoids; [15]): 0.483; Z.CTG (ENR+CD organoids; [16]): −0.010; Z.CTG (ENR+CD organoids; [17]): −0.479; Z.CTG (ENR+CD organoids; [18]): −0.404
CN(C)CCOc1ccc(/C(=C(/CCCl)c2ccccc2)c2ccccc2)cc1 [Toremifene Citrate] | 0.051 | 0.060 | 0.030 | −0.198 | 0.078 | 0.229 | −0.034 | −0.283 | 0.344 | 0.119 | −1.012 | −1.396 | 0.446 | 0.522 | 0.258 | −1.721 |  |  |  |  | 
Cc1nn(-c2ccccc2)c(C)c1/C=N/N1CCN(Cc2ccccc2)CC1 [SANT-1] |  |  |  |  |  |  |  |  |  |  |  |  |  |  |  |  |  |  |  |  | Dose.FC.LYZ.NS [1, 3]: 0.056 log2 fold change; Z.LYZ.NS [1, 4]: 0.485; Dose.FC.LYZ.NS [1, 5]: 0.000 log2 fold change; Z.LYZ.NS [1, 6]: 0.002; Dose.FC.LYZ.NS [1, 7]: 0.175 log2 fold change; Z.LYZ.NS [1, 8]: 1.528; Dose.FC.LYZ.NS [1, 9]: −0.049 log2 fold change; Z.LYZ.NS [1, 10]: −0.430; Dose.FC.LYZ.S [2, 11]: 0.112 log2 fold change; Dose.FC.LYZ.S [2, 12]: 0.024 log2 fold change; Dose.FC.LYZ.S [2, 13]: 0.101 log2 fold change; Dose.FC.LYZ.S [2, 14]: −0.120 log2 fold change; Dose.FC.CTG (ENR+CD organoids; [3]): 0.308 log2 fold change; Z.CTG (ENR+CD organoids; [4]): 0.736; Dose.FC.CTG (ENR+CD organoids; [5]): 0.078 log2 fold change; Z.CTG (ENR+CD organoids; [6]): 0.186; Dose.FC.CTG (ENR+CD organoids; [7]): 0.137 log2 fold change; Z.CTG (ENR+CD organoids; [8]): 0.327; Dose.FC.CTG (ENR+CD organoids; [9]): −0.042 log2 fold change; Z.CTG (ENR+CD organoids; [10]): −0.100
C=CC(=O)Nc1cccc(Nc2nc(Nc3ccc(OCCOC)cc3)ncc2F)c1 [AVL-292] | 0.095 | 0.052 | −0.112 | −0.213 | 0.235 | 0.106 | −0.206 | −0.376 | 0.217 | 0.057 | −0.058 | −0.778 | 0.831 | 0.451 | −0.979 | −1.858 | 0.518 | 0.135 | −0.138 | −1.859 | 
CN(C)CCCCC(=O)Nc1ccc(NC(=S)NC(=O)c2ccc(C(C)(C)C)cc2)cc1 [Tenovin-6] | 0.121 | −0.053 | −0.194 | −0.192 | 0.028 | −0.109 | −0.328 | −0.344 | 0.069 | −0.506 | −1.111 | −1.429 | 1.050 | −0.463 | −1.686 | −1.671 | 0.165 | −1.209 | −2.654 | −3.414 | 
CCCS(=O)(=O)Nc1ccc(F)c(C(=O)c2c[nH]c3ncc(-c4ccc(Cl)cc4)cc23)c1F [Vemurafenib (PLX4032, RG7204)] | 0.090 | 0.053 | 0.047 | 0.030 | 0.120 | 0.150 | 0.055 | 0.022 | 0.124 | −0.082 | −0.006 | 0.030 | 0.786 | 0.462 | 0.411 | 0.263 | 0.297 | −0.195 | −0.014 | 0.073 | 
